{
  "source": "patent US20250346582A1",
  "about": "“SPLEEN TYROSINE KINASE INHIBITORS AND METHODS OF USE THEREOF” (THE BOARD OF TRUSTEES OF THE UNIVERSITY OF ILLINOIS, priority 2022, published 2025)",
  "key": {"Syk-cSH2 E164D": {"molecular_target": "T1, Syk-cSH2 E164D (Homo sapiens, UniProt P43405, E164D)", "T1 construct": "polyhistidine (N); made in house; host or cells: Escherichia coli BL21 (DE3) pLysS", "assay": "Fluorescence quenching vesicle binding assay, Syk-cSH2 E164D mutant", "settings": "up to 5 μM; POPC/POPS/PIP3/dabsyl-PE vesicles", "method": "The membrane-binding assay is based on fluorescence quenching of EGFP fused to a SH2 domain by a dark quencher containing lipid, dabsyl-PE, incorporated in lipid vesicles. The plate reader assay was performed using the Synergy™ Neo spectrofluorometer at 25° C. Nontreated black polystyrene 96-well plates (Corning) were used. Protein (10-50 nM) with the increasing concentration of vesicles with a given lipid composition in 20 mM Tris buffer, pH 7.4, containing 0.16 M NaCl was added to each row of wells and the EGFP fluorescence emission at 516 nm was measured with excitation set at 485 nm. Z′ factor for the assay system was determined as described^74. Imax and IC50 values of inhibitors were determined using the equation, I=Imax/(1+IC50/[I]) where I and [I] indicate % inhibition and inhibitor concentration, respectively. The average and standard deviation values were obtained from triplicate determinations."}, "patient AML cells": {"tested_on": "patient AML cells", "assay": "Colony growth assay of patient-derived AML cells", "format": "cell-based", "settings": "primary AML cells from 4 patients", "method": "(§1) Primary samples were obtained from an existing HEMBANK at UIC under an IRB approved research protocol (protocol #2021-0723). Cells were processed and treated with inhibitors as reported previously^75. For primary AML samples, mononuclear cells isolated by Ficoll density centrifugation were utilized. mononuclear cells were treated in culture at a density of 0.5×10^6/ml in StemSpan with CD34 expansion supplement (Stemcell Technologies) for 24 h and then harvested for immunoblotting assays. In parallel 2×10^4 cells were plated in triplicate for each treatment condition in Methoccult H4434 (Stem Cell Technologies) in the presence of drug. At days 12-14, colonies were manually enumerated under light microscopy and normalized to DMSO control for each individual sample due to interpatient variability in colony forming activity. Normalized colony forming units for pooled treated and untreated samples (n=4) were compared using unpaired 2-tailed t test. p<0.05 was considered statistically significant."}, "HL60 cells": {"tested_on": "HL60 cells", "assay": "XTT cell proliferation assay, HL60 cells", "format": "cell-based", "method": "(§2) MV4-11 or HL-60 cells were seeded into a clear-bottom 96-well plate containing varying concentrations of inhibitors in the optimal growth media described above and the mixtures were incubated for 16 h. Cells were then treated with a mixture of XTT-labeling reagents and the electron coupling reagents according to the manufacturer's protocol (Roche). After 4 h, the absorbance values at 475 nm and at 660 nm were simultaneously measured by Synergy™ Neo spectrofluorometer at 25° C. Cells with the growth media was used for background correction."}, "[1]": {"tested_on": "entospletinib-resistant MV4-11 cells", "assay": "XTT cell proliferation assay, entospletinib-resistant MV4-11 cells", "format": "cell-based", "settings": "Homo sapiens, read-out: IC50, inhibition of proliferation (XTT assay)", "method": "Then the concentration was maintained at 5 μM.\nas §2"}, "Syk WT, E164D and E164Q [2]": {"molecular_target": "T2, Syk WT, E164D and E164Q (Homo sapiens, UniProt P43405)", "T2 construct": "When the full-length E164D and E164Q, respectively, were introduced into Syk-deficient MV4-11 cells; expressed in transfected cells; host or cells: entospletinib-resistant MV4-11 cells with shRNA knockdown of endogenous Syk", "assay": "Phosphorylation in Syk-deficient MV4-11 cells re-expressing Syk WT or E164 mutants", "format": "cell-based", "settings": "Syk WT added back to Syk-deficient AML cells; 5 μM overnight", "method": "(§3) FIGS. 5A-5B show cellular target validation of WC36. (a) Inhibition of Syk WT and WC36-binding site mutants by WC36. Entospletinib-resistant MV4-11 cells were treated with shRNA to suppress the expression of endogenous Syk and then transfected with exogenous Syk-WT and four Syk-[…] genes, respectively. These constructs harbor silent mutations to avoid gene suppression by Syk ShRNA. Phosphorylation of Syk and ERK1/2 in these cells was then monitored before and after treatment with 5 μM WC36 overnight. […] (b) Western blot analysis of WC36B-binding proteins captured by pull-down by streptavidin beads. Biotin was used as a negative control. GAPDH was used as a gel loading control.\n(§4) Cells were seeded at a density of 3.0×10^5 cells/well prior to incubation with inhibitors. Cells were incubated with 1-5 μM of Syk inhibitors overnight and stimulated with different antibodies: IgG2 for AML cells, IgM for Raji B cells, and OKT3 (Biolegend) for Jurkat cells. The cells were lysed in NP40 lysis buffer (50 mM Tris, pH 7.5, 150 mM NaCl, 1 mM EDTA, 1% NP40, 10% glycerol, 10 mM NaF, 10 mM Na3VO4, and the protease inhibitor cocktail) at 4° C. and the cell debris was removed by centrifugation. Samples were analyzed by SDS-PAGE. […] The chemiluminescence intensity of protein bands in the gel was analyzed and documented by the Azure 500Q Imaging System."}, "Syk WT, E164D and E164Q [3]": {"tested_on": "Syk WT, E164D and E164Q", "assay": "Phosphorylation in Syk-deficient MV4-11 cells re-expressing Syk WT or E164 mutants", "format": "cell-based, human", "settings": "Syk-deficient MV4-11 cells with full-length E164D or E164Q; 5 μM overnight", "method": "as §3, §4"}, "Raji B cells": {"tested_on": "Raji B cells", "assay": "Cell viability assay (CellTiter-Glo), Raji cells", "format": "cell-based", "settings": "0.5-5 μM", "method": "All cell viability assays were conducted in a white, flat-bottom, 96-well tissue culture plate (Corning). The Raji cells were seeded at a density of 3.0×10^5 cells/well 24 h prior to the incubation with the inhibitor. Varying concentrations of WC36 (or DMSO) was then added to each well and the plates were incubated at 37° C. and at 5% CO2 for 72 h. Cell viability was quantified with the CellTiter-Glo reagent. Growth media were removed by aspiration and replaced with 100 μl fresh media and 100 μl CellTiter-Glo reagent. The plates were then gently shaken for 2 min and incubated at 25 C.° for additional 8 min. The luminescence was measured using Synergy™ Neo spectrofluorometer at 25 C.°. The luminescence value at each WC36 concentration was normalized against that without WC36. DMSO with the same volume as the WC36 solution was used as negative controls."}, "Syk activation": {"tested_on": "Syk activation", "assay": "Immunoblotting of patient-derived primary AML cells", "format": "cell-based", "settings": "primary AML cells from 4 patients refractory or relapsed", "method": "as §1"}},
  "data": [
    {"compound": "[N-]=[N+]=C(C(=O)OC1CCCCC1)C(Nc1ncccn1)c1c[nH]c2ccccc12", "note": "(racemic) [WC36, Cyclohexyl 2-diazo-3-(1H-indol-3-yl)-3-(pyrimidin-2-ylamino)propanoate]", "values": [
      {"measurement": "inhibition of membrane binding of Syk-cSH2 E164D", "setting": "Syk-cSH2 E164D", "result": "not inhibited"},
      {"measurement": "suppression of colony forming activity", "setting": "patient AML cells", "result": "statistically significant suppression of colony forming activity"},
      {"measurement": "inhibition of proliferation (XTT assay)", "setting": "HL60 cells", "result": "potently suppressed the proliferation of HL60 cells"},
      {"measurement": "IC50", "setting": "[1]", "result": "500 ± 10", "unit": "nM"},
      {"measurement": "inhibition of phosphorylation of Syk WT and ERK1/2", "setting": "Syk WT, E164D and E164Q [2]", "result": "potently suppressed phosphorylation of Syk WT and ERK1/2"},
      {"measurement": "inhibition of phosphorylation of Syk E164D/E164Q and ERK1/2", "setting": "Syk WT, E164D and E164Q [3]", "result": "did not inhibit phosphorylation of these mutants and ERK1/2"},
      {"measurement": "effect on cell viability", "setting": "Raji B cells", "result": "minimal effect on cell viability"},
      {"measurement": "inhibition of Syk activation", "setting": "Syk activation", "result": "significant inhibition of Syk activation"}
    ]}
  ]
}
